According to patent US9687480B2, “Chiral 1-(4-methylphenylmethyl)-5-oxo-{N-[(3-t-butoxycarbonyl-aminomethyl)]-piperidin-1-yl)-pyrrolidine as inhibitors of collagen induced platelet activation and adhesion” (Council of Scientific & Industrial Research, priority 2011, dated 2017):

Columns and labels:
GPVI = target: T1, GPVI (Homo sapiens, UniProt Q9HCN6); test: GPVI-mediated platelet adhesion assay on fibrillar collagen (human, in vitro); format: cell-based; conditions: for human platelet adhesion on fibrillar collagen (GP VI mediated): in vitro, washed platelets, divalent cation-free; for Platelet adhesion: Table 2 summary, collagen type not stated, effective concentration in brackets: mixture 100 μM, compound 6 30 & 100 μM, compound 7 100 μM
T1 construct: Washed platelets, suspended in the Tyrode's-HEPES buffer; endogenous in cells; host or cells: washed human platelets from healthy volunteers
T1 sequence (Q9HCN6 21-339): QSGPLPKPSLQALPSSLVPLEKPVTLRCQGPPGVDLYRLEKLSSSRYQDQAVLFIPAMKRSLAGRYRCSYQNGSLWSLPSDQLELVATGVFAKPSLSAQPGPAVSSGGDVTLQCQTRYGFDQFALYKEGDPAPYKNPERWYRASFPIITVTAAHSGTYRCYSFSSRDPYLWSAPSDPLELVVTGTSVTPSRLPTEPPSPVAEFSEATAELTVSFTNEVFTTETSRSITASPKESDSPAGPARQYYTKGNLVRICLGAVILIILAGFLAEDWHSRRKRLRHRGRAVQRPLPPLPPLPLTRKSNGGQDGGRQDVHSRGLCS
T1 sequence (P30273 19-86 partner): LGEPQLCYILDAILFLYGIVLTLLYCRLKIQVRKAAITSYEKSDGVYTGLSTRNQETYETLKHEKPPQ
Description: Fresh blood was drawn by venipuncture from consenting healthy human volunteers in citrate-phosphate-dextrose. Platelet-rich plasma (PRP) was obtained by centrifugation at 180 g for 20 minutes at room temperature (Beckman TJ6. USA). […] Platelets were then washed twice with Buffer (20 mMHEPES, 138 mM NaCl, 2.9 mMKCl, 1 mMMgCl2, 0.36 mMNaH2PO4, 1 mM EGTA, 4.77 mM trisodium citrate, and 2.35 mM citric acid, 5 mM glucose and Apyrase 1 U/ml, pH 6.5) containing 0.1% bovine serum albumin (BSA) and finally resuspended in the HEPES-buffered Tyrode solution (pH 7.4), to give a concentration of 2×10^8 cells/mL (Jandrot-Perrus M. Lagrue A H, Okuma M, and Boni C Adhesion and Activation of Human Platelets Induced by Convulxin Involve Glycoprotein VI and Integrin α2β1 J. Biol. Chem. 1997; 272: 27035-27041).
Integrin α2β1 binding on soluble collagen depends on the presence of Mg2+/Ca^2+ (Onley D. J., Knight C. G., Tuckwell D. S., Barnes M. J., and Farndale R. W. Micromolar Ca2+ concentrations are essential for Mg2+-dependent binding of collagen by the integrin α2β1 in human platelets. J. Biol. Chem, 2000; 275: 24560-24564.) while GPVI mediates adhesion over fibrillar collagen in absence of divalent ions (Nieswandt B., Brakebusch C, Bergmeier W, Schulte V, Bouvard D, Nejad R M, Lindhout T, Heemskerk J W M, Zirngibl H and Fassler R. Glycoprotein VI but not α2b1 integrin is essential for platelet interaction with collagen. The EMBO Journal, 2001; 20:2120-2130) and therefore the adhesion assays were performed in the presence or absence of these divalent cations. Ninety-six well micro titer plates were coated with insoluble equine tendon fibrillar type I collagen or soluble rat tail type I (non-fibrillar) collagen, maintained in acetate buffer (pH 4.5), (Nakamura T., Jamieson G. A., Okuma M., Kambayashi J., and Tendon N. N. Platelet Adhesion to Native Type I Collagen Fibrils: role of gpVI in divalent cation-dependent and -independent adhesion and thromboxane A2 generation. J. Biol. Chem 1998; 273: 4338-[…], Tendon N N, Ockenhouse C F, Greco N J, Jamieson G A. Adhesive functions of platelet lacking GPIV (CD36). Blood 1991: 78: 2809-13). The unoccupied protein binding sites on the wells were blocked with 5 mg/ml BSA at room temperature for 1 hour, and then rinsed once in PBS. Washed platelets, suspended in the Tyrode's-HEPES buffer (136.7 mM NaCl, 13.8 mM NaHCO3, 0.36 mM NaH2PO4.H2O, 2.6 mM KCl, 1.0 mM MgCl2.6H2O, 5.5 mM glucose, 0.5% BSA, pH 7.4) at 1×10^8 cells/mL were pre-incubated with compounds for 30 min at 37° C. and added to the wells (10^7/well) for 1 h at room temperature. Divalent cation-free adhesion buffer was made by replacing Mg^2+ (1 mM) in the Tyrode-HEPES buffer with 50 μM EDTA (Yoshida S., Sudo T., Niimi M., Tao L., Sun B., Kambayashi J., Watanabe H., Luo E., and Matsuoka H. Inhibition of collagen-induced platelet aggregation by anopheline antiplatelet protein, a saliva protein from a malaria vector mosquito. Blood 2007; 111: 2007-201). After three washes in Tyrode's buffer, the number of adherent platelets was evaluated colorimetrically (as described by Bellavite P., Andrioli G., Gizzo P., Arigliano P., Chirumbolo S., Manzato F, Santonastaso C. A colorimetric method for the measurement of platelet adhesion in microtifer plates. Anal. Biochem. 1994; 216:444-450. Briefly, 150 μl of a 0.1 M citrate buffer (pH 5.4), containing 5 mM p-nitrophenyl phosphate and 0.1% TritonX-100 was added to the wells after washing. After incubation for 60 min at 25° C. in the absence of ambient light, colour was developed by the addition of 100 μl of 2N NaOH and the absorbance at 405 nm was read using a microplate reader (Powerware XS, Biotek, USA).

[1] = system: human platelet rich plasma (ADP induced aggregation); test: ADP induced platelet aggregation, human platelet rich plasma (in vitro); format: cell-based
Description: The reaction was allowed to proceed for at least 5 min, and the extent of aggregation was expressed in light-transmission units (Ivandic B T, Schlick P, Starltz P, Kurz K, Katas H A, Giannitsis E. Determination of clopidogrel resistance by whole blood platelet aggregometry and inhibitors of the P2Y12 receptor. Clinical Chemistry 2006: 52:383-88).
The percentage of aggregation was calculated by using following formula: Percent Aggregation=A/B×100 Where, A is the number of division traversed by the label on chart in the presence of Inducer & B is the total number of divisions (80). Platelet Aggregation Studies (FIG. 3) a) Platelet Aggregation (Human, In Vitro) (FIG. 3a (i) (ii) (iii))

human α-thrombin = target: T2, human α-thrombin (Homo sapiens, UniProt P00734); test: Amidolytic assay of thrombin activity (fluorogenic substrate); format: biochemical; conditions: compound 1 at 300 μM and 1 mM after 15 min of substrate incubation
T2 construct: amidolytic activity of human α-thrombin using fluorogenic substrate

mice = test: Collagen-epinephrine induced pulmonary thromboembolism in mice; format: in vivo; conditions: Table 2 summary; how long protection lasts
Excerpt: To assess the antithrombotic efficacy of Compounds, mice were divided into vehicle, aspirin and Compounds treated groups, and each group included ten animals. […] Results have been reported as percentage protection, which represents protection against collagen and epinephrine induced thrombosis and expressed as: Percent Protection=(1-([…]-number of animals paralyzed/dead in test compound-treated group; Pcontrol-number of animals paralyzed/dead in vehicle treated group. Collagen Epinephrine Induced Pulmonary Thromboembolism (FIG. 1): […]

Compound	human platelet adhesion on fibrillar collagen (GP VI mediated) (GPVI)	effect on ADP induced platelet aggregation ([1]; concentration not given)	thrombin amidolytic activity (human α-thrombin)	Collagen-epinephrine induced thrombosis in mice (duration of effect) (mice)	Platelet adhesion (GPVI)	effect on ADP induced platelet aggregation ([1]; up to 300 μM)
Cc1ccc(CN2C(=O)CC[C@H]2C(=O)N2CCCC(CNC(=O)OC(C)(C)C)C2)cc1 (some centres unmarked) [Compound 1, 1-(4-methylphenylmethyl)-5-oxo-{N-[(3-t-butoxycarbonyl-aminomethyl)]-piperidin-1-yl}-pyrrolidine-2-carboxamides]	partially inhibited	no effect	significant inhibitory effect	–	–	–
Cc1ccc(CN2C(=O)CC[C@H]2C(=O)N2CCC[C@@H](CNC(=O)OC(C)(C)C)C2)cc1 [Compound 6]	partially inhibited	no effect	remained ineffective	>24 h	Effective (30	did not exhibit any effect
1-(4-methylphenylmethyl)-5-oxo-{N-[(3-t-butoxycarbonyl-aminomethyl)]-piperidin-1-yl}-pyrrolidine-2-carboxamides [Compound 1]	–	–	–	Up to 18 hrs	Effective	–
Cc1ccc(CN2C(=O)CC[C@H]2C(=O)N2CCC[C@H](CNC(=O)OC(C)(C)C)C2)cc1 [Compound 7, (2S)-1-(4-methylphenylmethyl)-5-oxo-(3R)-{N-[(3-t-butoxycarbonyl-aminomethyl)]-piperidin-1-yl}-pyrrolidine-2-carboxamide]	partially inhibited	no effect	actively attenuated	<12 h	Effective	did not exhibit any effect
